Earlier results on one compound are cited in US20260262632A1, “COMPOSITIONS AND METHODS FOR TANK-MIX SPRAY APPLICATION OF 1-MCP” (AGROFRESH INC., priority 2023, published 2026).

Turning to `CC1=CC1` [1-MCP, 1-Methylcyclopropene], the “concentration above which gaseous 1-MCP is flammable” value is recorded as > 13,300 ppm.
